According to PMC11969024, “Development of chemokine network inhibitors using combinatorial saturation mutagenesis” (Communications Biology, 2025):

Tests used:
[1] = test system: activated CD8+T-cells (ATC); assay: Activated T-cell (ATC) migration induced by individual chemokines, inhibition by peptide; assay type: cell-based, human; settings: for inhibition of CCL19, CCL21, CXCL9, and CXCL11-induced migration of ATCs compared to parental HD2: peptide 10 uM, chemokines at EC80, Dunnett's test
Description: Cell lines were confirmed mycoplasma free by monthly testing using a MycoAlert^TM kit (LT07-118, Lonza) following the manufacturer’s instructions. THP1 cells: THP1 cells (ECACC 88081201, a human monocyte leukemia cell line[51]) were obtained from ECACC and were cultured in T175 flasks at 0.3-1 × 10^6 cells/mL in Roswell Park Memorial Institute (RPMI) 1640 medium (R0883, Sigma) with 10% FBS (F9665, Sigma) and 5mM L-glutamine (G7513, Sigma), 37 °C, 5% CO2. J:CXCR1 cells: The J:CXCR1 cell line was cultured in the same manner as THP1 cells at 0.15-1 × 10^6 cells per mL[37]. Activated T-cells: T-cells were isolated, activated and expanded as follows. Briefly, density gradient centrifugation using Lymphoprep^TM density gradient medium (07801, […] Technologies) and a SepMate^TM isolation tube (85450, […] Technologies) was used to isolate peripheral blood mononuclear cells from human leukocyte cones. Two rounds of purification using a human CD8 + T-cell isolation kit (480011, BioLegend) were used to isolate CD8 + T-cells from peripheral blood mononuclear cells. Activation of CD8 + T-cells was performed in ImmunoCult^TM-XF T-cell expansion medium (10982, […] Technologies) with an anti-CD3/anti-CD28 T-cell activator at 25 μl/ml (10991, […] Technologies), supplemented with 10 ng/ml recombinant human IL-2 (200-02, PeproTech) with 1% penicillin/streptomycin. T-cells were passaged every 2–3 days in TexMACS medium (130-097-196, Miltenyi Biotec), supplemented with 10 ng/ml human IL-2 (200-05-250, Peprotech) and incubated at 37 °C in 5% CO2. CD8 + T-cells were frozen at day 10-13 after initial activation, at 20×10^6 cell/ml in TexMACS medium supplemented with 10% DMSO (D2650, Sigma) in liquid nitrogen. Activated CD8^+ T-cells were recovered in TexMACs medium at 0.3 × 10^6 cell/ml and incubated at 37 °C in 5% CO2, 24 h prior to use. For buffy coat experiments a mixture of primary human monocytes, granulocytes and lymphocytes was isolated from human buffy coat. Briefly, RBCs were sedimented in HetaSep (07806, […] Technologies) with 1 mL of HetaSep per 5 mL of blood for 15 min at 37 °C. The buffy coat layer was collected from the top and washed in 50 ml MACS buffer (PBS (P4417, Sigma), 0.5% BSA (A7030, Sigma), 0.075% EDTA (E5134, Sigma), pH 7.2), by centrifugation at 2000 g for 10 min at room temperature. The pellet was resuspended in 10 mL of 1x RBC lysis solution (130-094-183, Miltenyi Biotec) and lysed for 10 min at room temperature. The cells were then washed in MACS buffer twice as above. The final pellet was resuspended in 1 mL of MACS buffer per 5 mL of initial blood volume and counted using cell size FSC-H/SSC-H parameters with gate settings previously defined by immunostaining (see below). The leukocytes were then resuspended in assay buffer for cell migration and used within 30 min of isolation.
Cell counts were determined using an ATTUNE NxT Flow Cytometer with Cytkick autosampler (ThermoFisher), based on cell size parameters FSC-H/SSC-H, with previously defined gate settings. FSC-H/SSC-H gate settings for primary white blood cells from buffy coats were determined using flow cytometry to establish the granulocyte, monocyte and lymphocyte populations (Supplementary Fig. 13). Briefly, cells were labelled with anti-CD3 (Miltenyi Biotec, 130-113-135) to identify the T cell population, anti-CD14 (Miltenyi Biotec, 130-110-578) to identify the monocyte population, and with anti-CD16 (Miltenyi Biotec, 130-113-951) to identify the granulocyte population. Negative control cells were labelled with anti-human IgG1 (Miltenyi Biotec, 130-113-434). All antibodies were allophycocyanin (APC) conjugated. 100,000 white blood cells were added to Eppendorf tubes and centrifuged at 300 g for 3 min. The supernatant was discarded, and the cells resuspended in 98 µL of MACS buffer (1× PBS, 2 mM EDTA and 0.5% BSA, sterile filtered). 2 µl of antibody was added to the cells. […]

[2] = test system: J:CXCR1 cells (Jurkat cells stably transfected with CXCR1); assay: J:CXCR1 cell migration induced by CXCL6, inhibition by peptide; assay type: cell-based, human; settings: peptide 10 uM; CXCL6 at EC80; Dunnett's test
Description: Cell lines were confirmed mycoplasma free by monthly testing using a MycoAlert^TM kit (LT07-118, Lonza) following the manufacturer’s instructions. THP1 cells: THP1 cells (ECACC 88081201, a human monocyte leukemia cell line[51]) were obtained from ECACC and were cultured in T175 flasks at 0.3-1 × 10^6 cells/mL in Roswell Park Memorial Institute (RPMI) 1640 medium (R0883, Sigma) with 10% FBS (F9665, Sigma) and 5mM L-glutamine (G7513, Sigma), 37 °C, 5% CO2. J:CXCR1 cells: The J:CXCR1 cell line was cultured in the same manner as THP1 cells at 0.15-1 × 10^6 cells per mL[37]. Activated T-cells: T-cells were isolated, activated and expanded as follows. Briefly, density gradient centrifugation using Lymphoprep^TM density gradient medium (07801, […] Technologies) and a SepMate^TM isolation tube (85450, […] Technologies) was used to isolate peripheral blood mononuclear cells from human leukocyte cones. Two rounds of purification using a human CD8 + T-cell isolation kit (480011, BioLegend) were used to isolate CD8 + T-cells from peripheral blood mononuclear cells. Activation of CD8 + T-cells was performed in ImmunoCult^TM-XF T-cell expansion medium (10982, […] Technologies) with an anti-CD3/anti-CD28 T-cell activator at 25 μl/ml (10991, […] Technologies), supplemented with 10 ng/ml recombinant human IL-2 (200-02, PeproTech) with 1% penicillin/streptomycin. […] The final pellet was resuspended in 1 mL of MACS buffer per 5 mL of initial blood volume and counted using cell size FSC-H/SSC-H parameters with gate settings previously defined by immunostaining (see below). […]
Cell counts were determined using an ATTUNE NxT Flow Cytometer with Cytkick autosampler (ThermoFisher), based on cell size parameters FSC-H/SSC-H, with previously defined gate settings. FSC-H/SSC-H gate settings for primary white blood cells from buffy coats were determined using flow cytometry to establish the granulocyte, monocyte and lymphocyte populations (Supplementary Fig. 13). […]

## EEDDWTAYAPLTCYFT [HD2Y5W, HD2 point mutant]
[1]; ATC migration, statement of the discussion
  inhibition of chemokines e.g. CCL19, CCL21 and CXCL11: de novo inhibition
[1]
  inhibition of CCL19, CCL21, CXCL9, and CXCL11-induced migration of ATCs compared to parental HD2: significant improvement in inhibition

## EEDDYWAYAPLTCYFT [HD2T6W, HD2 point mutant]
[2]
  inhibition of CXCL6-induced migration of J:CXCR1 cells compared to parental HD2: significant improvement in inhibition
[1]
  inhibition of CCL19, CCL21, CXCL9, and CXCL11-induced migration of ATCs compared to parental HD2: significant improvement in inhibition
